Measurements: PubChem BioAssay AID179 (DTP/NCI, 2004)
Values joined by “and” are separate entries in the source; they are usually repeats but may differ in a detail not shown here. Equal values may be shown once. Active and inactive are the calls of the source.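 The calls were made as follows: active = compounds giving half or more protection of infected cells from virus-caused growth loss, again on retest; inactive = the rest.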

Tested on: CEM cells HIV-1 protection, formazan growth assay
Experiment: NCI AIDS Antiviral Assay
Settings: for IC50: measured here: growth of uninfected CEM cells
Procedure: The ability of compounds to protect human CEM cells from HIV-1 infection is measured as a screen for new compounds capable of inhibiting the HIV virus. Five concentrations of drug were tested on uninfected and infected cells and cell growth was measured using a soluble formazan assay. […] Compounds that provided at least 50% protection were retested. Compounds that provided at least 50% protection on retest were listed as moderately active. Compounds that reproducibly provided 100% protection were listed as confirmed active. […] Note that the inability to provide protection could be due to toxicity.

COP(=O)(OC)c1nc(P(=O)(OC)OC)nc(P(=O)(OC)OC)n1
EC50: > 110 µM | IC50: 89.1 µM

[O-][n+]1onc2c3nn(-c4ccccc4)nc3ccc21
EC50: > 200 µM | IC50: 12 µM

CCOC(=O)CCC(NC(=O)c1ccc(OCc2ccc3nc(-c4ccccc4)c(Cl)nc3c2)cc1)C(=O)OCC (stereo not drawn)
EC50: > 200 µM | IC50: 43.7 µM

CN1c2ccccc2C(=O)NC12CCN(Cc1ccccc1)CC2
EC50: > 200 µM | IC50: 120 µM

COc1ccc2c(=O)c(C)c(/C=C/c3ccco3)oc2c1
EC50: > 158 µM | IC50: 27.5 µM

CCN(CC)C1C=CCC2C1S(=O)(=O)C2(C)C (stereo not drawn)
EC50: > 977 µM | IC50: > 977 µM

Cc1cc(CO)c(O)c(CN(CCO)CCO)c1
EC50: > 200 µM | IC50: 20.4 µM

O=C(Cn1cc(F)c(=O)[nH]c1=O)C12CC3CC(CC(C3)C1)C2
EC50: > 200 µM | IC50: 186 µM

c1ccc2c(c1)nnn1c3ncccc3nc21
EC50: > 58.9 µM | IC50: 23.4 µM

O=C1SS(=O)c2ccccc21 (stereo not drawn)
EC50: > 200 µM | IC50: 95.5 µM

O=Nc1c(S(=O)(=O)O)cc2cc(S(=O)(=O)O)ccc2c1O
EC50: > 200 µM | IC50: > 200 µM

CC1=C(C)CC2(CC1)C(=O)NC(=O)NC2=O
EC50: > 832 µM | IC50: > 832 µM

O=C1C=C(N2CCOCC2)C(=O)c2nccnc21
EC50: > 15.5 µM | IC50: 10.2 µM

O=C1NC(=O)C2C(=O)NC(=O)C1C2c1c(Cl)cccc1Cl (stereo not drawn)
EC50: > 759 µM | IC50: 501 µM

COC1/C=C/OC2(C)Oc3c(C)c(O)c4c(O)c(c(/C=N/N5CCN(Cc6ccccc6)CC5)c(O)c4c3C2=O)NC(=O)C(C)=C/C=C/C(C)C(O)C(C)C(O)C(C)C(OC(C)=O)C1C (stereo not drawn)
EC50: > 200 µM | IC50: 10.2 µM

COc1ccc(/C=C/C(=O)c2ccccc2)cc1OC
EC50: > 97.7 µM | IC50: 18.2 µM

O=C1c2cc3c(cc2CC12Cc1ccccc1C2)CCC3
EC50: > 200 µM | IC50: 28.2 µM

CCN(CC)Cc1cc(Nc2c3ccccc3nc3c2[nH]c2ccccc23)cc(CN(CC)CC)c1O
EC50: > 427 µM | IC50: 0.269 µM

CO[C@H]1/C=C/O[C@@]2(C)Oc3c(C)c(O)c4c(O)c(c(/C=N/N5CCNCC5)c(O)c4c3C2=O)NC(=O)/C(C)=C\C=C\[C@H](C)[C@H](O)[C@@H](C)[C@@H](O)[C@@H](C)C(OC(C)=O)[C@@H]1C (stereo partly drawn)
EC50: > 200 µM | IC50: 50.1 µM

Cc1ccc(N=Nc2cc(C)c(N)c(N=Nc3ccc(N=Nc4cc(C(=O)O)c(O)c(S(=O)(=O)O)c4)c(C)c3)c2N)cc1
EC50: 14.1 µM | IC50: > 100 µM

CN(C)Cc1cc(C(=O)/C=C/c2ccc(O)cc2)cc(CN(C)C)c1O
outcome: inactive

Brc1ccc(N2N=NC3CNCC32)cc1 (stereo not drawn)
EC50: > 26.9 µM | IC50: > 26.9 µM

CC1C2CC(C(C3C(=O)C4CC3C(C)(C)C4C)C2=O)C1(C)C (stereo not drawn)
EC50: > 437 µM | IC50: > 437 µM

CSc1nnc2sc3cc(C)ccc3n12
EC50: > 200 µM | IC50: 123 µM

Nc1c(Cl)c([N+](=O)[O-])cc2c1OCCCCO2
EC50: > 200 µM | IC50: 123 µM

O=C1NC(=O)N2CC(CI)OC2C1c1ccccc1 (stereo not drawn)
EC50: > 97.7 µM | IC50: > 97.7 µM

CCOc1ccc(NC(=O)/C(=C\c2ccc(C)cc2)C(C)=O)cc1
outcome: inactive

O=C1NN(C2=NNC3(C(=O)N2)c2ccccc2-c2ccccc23)C(c2ccccc2)=N/C1=C/c1ccc(O)cc1
EC50: > 100 µM | IC50: 66.1 µM

CNC(=O)Oc1ccc(Cl)cc1SSc1cc(Cl)ccc1OC(=O)NC
EC50: > 200 µM | IC50: 8.32 µM

CCOP(=O)(OCC)/C(C#N)=C/c1cccc(Cl)c1
EC50: > 224 µM | IC50: 174 µM

O=C(Nc1ccc([N+](=O)[O-])cc1)C(=O)C(C(=O)c1ccccc1F)C1OC(=O)c2ccccc21 (stereo not drawn)
EC50: > 204 µM | IC50: 8.71 µM

c1cc(CSP234N5CCN2CCN3CCN4CC5)ccc1CSP123N4CCN1CCN2CCN3CC4
EC50: > 100 µM | IC50: 36.3 µM

CC(C)(Oc1ccccc1)C(=O)Sc1c(-c2ccccc2)c(=O)n(-c2ccccc2)c(=S)n1-c1ccccc1
EC50: > 200 µM | IC50: 1.35 µM

COC(=O)c1ccccc1CC1Cc2ccc3c(c2C1)CCC3 (stereo not drawn)
EC50: > 200 µM | IC50: 91.2 µM

O=C(O)c1cc(Cl)n[nH]c1=O
EC50: > 1410 µM | IC50: > 1410 µM

O=[N+]([O-])c1cccc(S(=O)(=O)SSS(=O)(=O)c2cccc([N+](=O)[O-])c2)c1
EC50: > 40.7 µM | IC50: > 40.7 µM

COC(=O)CCC1=NCC(C)(C)O1
EC50: > 200 µM | IC50: > 200 µM

COC(=S)NP(=O)(NC(=S)OC)NC(=S)OC
EC50: > 200 µM | IC50: > 200 µM

C=C1CN(S(=O)(=O)c2ccc(C)cc2)CCCN(Cc2cccs2)CCCN(S(=O)(=O)c2ccc(C)cc2)C1
EC50: > 200 µM | IC50: 70.8 µM

COc1cc2c(cc1OC)C1OC(c3cc(OC)c(OC)cc3C1OC(C)=O)C2OC(C)=O (stereo not drawn)
EC50: > 50.1 µM | IC50: > 50.1 µM

O=C1NC(=O)/C(=C/c2ccc(S(=O)(=O)N/N=C\C(O)C(O)C(O)CO)cc2)N1 (stereo not drawn)
EC50: > 200 µM | IC50: 135 µM and 191 µM

O=C1CN(c2cccc(Cl)c2)C(=O)CN1NCNN1CC(=O)N(c2cccc(Cl)c2)CC1=O
EC50: > 200 µM | IC50: > 200 µM

CS(=O)(=O)Nc1ccc2c(c1)N(S(C)(=O)=O)CC2COS(C)(=O)=O (stereo not drawn)
EC50: > 200 µM | IC50: 40.7 µM

C=C(C)C1CC[C@@](C)(O)[C@H](C#N)C1 (stereo partly drawn)
EC50: > 200 µM | IC50: > 200 µM

c1ccc(C2OCCO2)c(OCCOc2cc(OCCOc3ccccc3C3OCCO3)c(OCCOc3ccccc3C3OCCO3)cc2OCCOc2ccccc2C2OCCO2)c1
EC50: > 7.94 µM | IC50: > 7.94 µM

COC1OC2COC(C)(C)OC2C2OC(C)(C)OC12 (stereo not drawn)
EC50: > 200 µM | IC50: 182 µM

Cc1ccc(S(=O)(=O)O/N=C2\CCC\C2=C/c2ccccc2)cc1
outcome: inactive

Cn1c2c(c3ccccc3c1=O)C(=O)c1ccccc1-2
EC50: > 14.5 µM | IC50: 7.41 µM

CCOC(=O)c1cc(I)c(-c2cc(C)no2)n1C
EC50: > 200 µM | IC50: 37.2 µM

O=NNc1cnccn1
EC50: > 1700 µM | IC50: > 1700 µM

O=c1c2ccccc2nc(N/N=C/c2ccccc2O)n1-c1ccccc1
EC50: > 200 µM | IC50: 1.48 µM

S=c1[nH]nc(Cn2c3ccc(Br)cc3c3nc4ccccc4nc32)n1C1CCCCC1
EC50: > 200 µM | IC50: 51.3 µM

O=C1C=Cc2c(Cl)sc(Cl)c21
EC50: > 200 µM | IC50: 0.794 µM

O=C(O)CC1Sc2ccccc2NC1=O (stereo not drawn)
EC50: > 1120 µM | IC50: > 1120 µM

O=c1c2cccnc2cc(-c2ccccc2)n1CCO
EC50: > 200 µM | IC50: > 200 µM

O=C1CC(c2ccsc2)NC(=O)N1CCCl (stereo not drawn)
EC50: > 200 µM | IC50: > 200 µM

OCC1OC(n2cnc3c(Cl)nc(Nc4ccc(Cl)c(Cl)c4)nc32)CC1O (stereo not drawn)
EC50: > 200 µM | IC50: 3.72 µM

O=C1CCc2ccc3c(c21)CC1(Cc2ccccc2C1)C3
EC50: > 200 µM | IC50: > 200 µM

CC1(C)OC2CC3CC(OC3=O)C2O1 (stereo not drawn)
EC50: > 832 µM | IC50: > 832 µM

CCOc1ncn(-c2ccc(NC(=S)Nc3cnccn3)cc2)n1
EC50: 129 µM | IC50: > 200 µM

COc1ccc(C(=O)C(c2ccc(OC)cc2)C2C(=O)Oc3ccccc32)cc1 (stereo not drawn)
EC50: > 34.7 µM | IC50: > 34.7 µM

C/C1=C/C2OC(=O)C3(C)C2C(CC2(C)OC1=CC2=O)OC3(O)C(C)C (stereo not drawn)
EC50: > 102 µM | IC50: 10.5 µM

Cn1c(NN)nc2ccccc2c1=O
outcome: inactive

O=S1OC2(c3ccccc3-c3ccccc32)c2ccccc21 (stereo not drawn)
outcome: inactive
